Here are results for five compounds from paper PMC13242511, “Disrupting Notch signalling by a small molecule inhibiting dihydroorotate dehydrogenase activity” (Scientific Reports, 2026).

Where a SMILES comes first, the peptide text is derived from it. The star is where a group is joined. Cbz = O=C(OCc1ccccc1)*

Assay [1] concerns mNotch1ΔE fused to an HiBiT tag. The assay is described as follows: HiBit reporter assay. The assay is classed as cell-based, mouse. To be noted: 24 h, 14-point dose-response; Supplemental Fig. 8D,G. Here is the method:
The Notch1ΔE construct used to generate the Notch reporter cell line (see above) was first cloned in frame into the pBiT3.2-C [TK/HiBiT/Blast] Vector (Promega) and then stably introduced into HEK293T wild type cells, using Lipofectamine transfection, as described. Analogous to the Notch reporter cell line, Blasticidin was used as a selection marker (0.1 mg/ml) and stable cell lines with robust luciferase signals were generated. […] A clone (#D2) with an empty HiBit vector stably integrated was used as control.
20 µl containing 4,000 cells were seeded on 384-well pre-spotted compound plates (Greiner, cat #781080). Cells were incubated for 24 h and viability was determined using CellTiter-Fluor (Promega, cat # G6080), following the manufacturer’s instructions. Next, cells were subjected to the HiBit assay according to the manufacturer’s instructions (Promega, cat # N3030). Prior to cell lysis, the tissue culture plates were allowed to cool down to room temperate. Fluorescence and luminescence signals were recorded using a SpectraMax i3 (Molecular devices) and signals were read at different time-points to determine optimal signal stability. Cells cultivated only with DMSO were used as a reference to determine effects of compounds. MG132, Bafilomycin A1 and the GSI RO4929097 served as additional controls. Celastrol was used to determine the assay window, and a minimum of two technical replicates were measured per assay.

Assay [2] concerns Notch1 ICD-induced mouse model of T-ALL. Details: method as in PMID 37648673. The settings on record: cited from earlier work.
Assay [3] concerns T-ALL and breast cancer cell lines. As to the kind of experiment: Growth inhibition in tumour cell lines (panel, cell lines not named singly). The format is cell-based. The settings on record: overview in comparison to compound C; Supplemental Fig. 9. An excerpt:
We next investigated whether compounds A-E affected growth and viability of cell lines from T-cell acute lymphoblastic leukaemia (T-ALL) and breast cancer, two tumour types in which elevated Notch signalling has been implicated in tumorigenesis. […] When testing analogues of compounds B and C, five of the seven B analogues and one of the two C analogues produced dose–response curves and IC50s, which however were higher compared to the original hits (Supplemental Fig. 5A; IC50s are presented in Supplemental Table 6).
Compounds were spotted on white 384-well tissue culture plates (Greiner, cat #781080) using an Echo 525 Acoustic liquid handler (Labcyte). Cells were grown to 80% confluence, detached if required, counted and 20 µl containing 2000–4000 cells per well was then seeded in each well and cultivated for three (4,000 cells seeded) and six days (2,000 cells seeded). […] Luciferase activity (reading out metabolic activity) was determined using the CellTiter-Glo 2.0 kit (CTG, Promega, cat #G9242) following the manufacturer’s instructions and luminescence was measured on a SpectraMaxi3 or Varioscan plate reader (Molecular Devices, Thermofisher).

A further assay has as its target γ-secretase complex (Homo sapiens, UniProt P49768). As to the kind of experiment: APP-C99 counter assay (GSI reporter assay). The assay is classed as cell-based. The settings on record: overview in comparison to compound C; Supplemental Fig. 9. Summed up:
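γ-secretase activity reported via APP cleavage driving firefly luciferase, normalized to renilla. After 24 h transfection then 24 h compound exposure, signals were read (0.1 s integration). Triplicate dose–responses fitted by variable-slope four-parameter model for IC50; area under curve also derived.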

In a further assay the test system is Notch signalling. As to the kind of experiment: Notch reporter assay (12xCSL firefly luciferase / renilla luciferase, HEK293T Notch1ΔE reporter cell line clone #A1-11). The format is cell-based. In short, it runs like this:
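Compounds at two-fold concentration in 10 µl medium were brought to one-fold by adding 10 µl holding 4000 Notch reporter cells (clone #A1-11) per well of a 384-well plate. After 24 h, Promega dual-GLO firefly and renilla luciferase were read on a SpectraMaxi3. Dose-response curves were fitted with a log(inhibitor) vs. response variable-slope model.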

Another assay has as its system Drosophila melanogaster. The settings on record: cited from earlier work.

In the case of `CO/C1=C\C(C)=C\[C@@H](C)[C@@H](O)[C@@H](C)C/C(C)=C/C=C/[C@H](OC)[C@@H]([C@@H](C)[C@@H](O)[C@H](C)[C@@]2(O)C[C@@H](O)[C@H](C)[C@@H](C(C)C)O2)OC1=O` [Bafilomycin A1, reference compound], the HiBiT luciferase signal entry in assay [1] was “increased the HiBiT signal”. On to `Cc1c(-c2ccc(-c3ccccc3F)cc2)nc2ccc(F)cc2c1C(=O)O` [brequinar], for which the “outcome in Notch1 ICD-induced mouse model of T-ALL” value in assay [2] is “curative”.

As to BAY2402234 [reference compound], the viability assay entry in assay [3] was “reduced”. On γ-secretase complex, the APP assay result is given as “higher potency”. In addition, the IC50 in the assay with Notch signalling (expanded dose range 500 nM-25 pM, Fig. 7E, read-out: IC50, Notch reporter activity) came to 0.011 µM. Moreover, the Notch assay entry in the assay on Notch signalling (overview in comparison to compound C, Supplemental Fig. 9) is “higher potency”. Consider `Cc1c(C(=O)O)[nH]c(=O)[nH]c1=O` [5-methyl orotate], for which, in the assay on Drosophila melanogaster, the “phenotype after chemical DHODH inhibition” value is reported as “phenocopied Notch mutations”.

In the case of `CC(C)C[C@@H](C=O)NC(=O)[C@H](CC(C)C)NC(=O)[C@H](CC(C)C)NC(=O)OCc1ccccc1` [MG132, reference compound] (Cbz-Leu-Leu-Leu-aldehyde), the HiBiT luciferase signal result in assay [1] is given as “increased the HiBiT signal”.
